This is an account of results in patent publication US20090036422A1 (priority 2007, published 2009).

Broadly, the Kb is the affinity of an antagonist, worked out from how it opposes an agonist.

Each structure is given as a SMILES string. Structures can show the parent of a compound that is named as a salt.

The target in the assay is T1, human orexin-2 (hOX2) receptor (Homo sapiens, UniProt O43614).
T1 construct: expressed in transfected cells
T1 sequence (O43614 1-444): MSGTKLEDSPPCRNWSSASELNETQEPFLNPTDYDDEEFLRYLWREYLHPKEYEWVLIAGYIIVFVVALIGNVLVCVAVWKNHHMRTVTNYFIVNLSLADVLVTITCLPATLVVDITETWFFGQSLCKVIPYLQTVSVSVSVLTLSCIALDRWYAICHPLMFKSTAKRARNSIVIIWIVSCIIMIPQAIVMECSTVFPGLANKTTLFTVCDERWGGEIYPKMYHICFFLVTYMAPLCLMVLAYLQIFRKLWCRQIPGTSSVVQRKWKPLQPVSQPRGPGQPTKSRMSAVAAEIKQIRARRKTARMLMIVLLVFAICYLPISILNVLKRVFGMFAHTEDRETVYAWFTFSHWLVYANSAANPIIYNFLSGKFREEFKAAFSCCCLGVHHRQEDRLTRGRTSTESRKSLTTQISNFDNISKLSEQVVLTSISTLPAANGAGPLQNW
As to the kind of experiment: Intracellular Ca2+ mobilization assay (FLIPR), CHO(dHFr-) cells expressing hOX2, orexin-A at EC80 as agonist. Type of assay: cell-based. The conditions noted are these: Kb=IC50/(1+[A]/EC50); CHO(dHFr-)-OX2R cells, antagonist applied 25 min before orexin-A EC80. As to the method:
Intracellular Ca^2+ Mobilization Assay
The Chinese Hamster Ovary (dHFr−) mutant cell line stably expressing human orexin-1 (hOX1) or human orexin-2 (hOX2) receptors were maintained in Dulbecco's Modified Eagle Medium (1×) with GlutaMax™ 1, 4500 mg/L D-Glucose and Sodium Pyruvate (Catalog No. 31966-021, Invitrogen, Carlsbad, Calif.), 5% dialyzed fetal calf serum (Catalog No. 26400-044), 100 μg/ml penicillin and 100 μg/ml streptomycin. The cells were seeded at 5×10^4 cells/well in the poly-D-lysine treated, 96-well, black/clear-bottomed plates (Catalog No. BD356640, BD Biosciences, Palo Alto, Calif.). 24 h later, the cells were loaded for 1 h at 37° C. with 4 μM Flou-4 acetoxymethyl ester (Catalog No. F-14202, Molecular Probes, Eugene, Oreg.) in FLIPR buffer (1×HBSS, 20 mM HEPES, 2.5 mM Probenecid). Hanks' Balanced Salt Solution (HBSS) (10×) (catalog No. 14065-049) and HEPES (1M) (catalog No. 15630-056) were purchased from Invitrogen, Carlsbad, Calif. Probenecid (250 mM) (catalog No. P8761) was from Sigma, Buchs, Switzerland. The cells were washed five times with FLIPR buffer to remove excess dye and intracellular calcium mobilization, [Ca^2+]i were measured using a Fluorometric Imaging Plate Reader (FLIPR-96, Molecular Devices, Menlo Park, Calif.) as described previously (Malherbe et al., Mol. Pharmacol., 64, 823-832, 2003). Orexin A (catalog No. 1455, Toris Cookson Ltd, Bristol, UK) was used as agonist. Orexin A (50 mM stock solution in DMSO) was diluted in FLIPR buffer +0.1% BSA. The EC50 and EC80 values of orexin-A were measured daily from standard agonist concentration-response curves in CHO(dHFr−) —OX1R and —OX2R cell lines. All compounds were dissolved in 100% DMSO. Inhibition curves were determined by addition of 11 concentrations (0.0001-10 μM) of inhibitory compounds and using EC80 value of orexin-A as agonist (a concentration which gave 80% of max agonist response, determined daily). The antagonists were applied 25 min (incubation at 37° C.) before the application of the agonist. Responses were measured as peak increase in fluorescence minus basal, normalized to the maximal stimulatory effect induced by EC80 value of orexin-A or orexin-B. Inhibition curves were fitted according to the Hill equation: y=100/(1+(x/IC50)^nH), where nH=slope factor using Excel-fit 4 software (Microsoft).
Kb values were calculated according to the following equation Kb=IC50/(1+[A]/EC50) where A is the concentration of agonist added which is very close to agonist EC80 value, and IC50 and EC50 values were derived from the antagonist inhibition and orexin-A or B agonist curves, respectively.
Background: A change in cytosolic calcium serves as a functional read-out for many receptors and channels.

Consider `Cc1ccc(N(CCc2ccc(C(F)(F)F)cc2)C(=O)Cn2c(C)nc3ccccc32)cc1C` [Example 236, N-(3,4-Dimethyl-phenyl)-2-(2-methyl-benzoimidazol-1-yl)-N-[2-(4-trifluoromethyl-phenyl)-ethyl]-acetamide], for which the Kb came out at 0.076 µM.

Take `COc1ccc(N(CCc2ccc(C(F)(F)F)cc2)C(=O)C(N)c2ccccc2OC)cc1Cl` (stereo not shown) [Example 43, 2-Amino-N-(3-chloro-4-methoxy-phenyl)-2-(2-methoxy-phenyl)-N-[2-(4-trifluoromethyl-phenyl)-ethyl]-acetamide]: the Kb stood at 0.0162 µM.

For `Cc1ccc(N(CCc2ccc(C(F)(F)F)cc2)C(=O)[C@@H](O)c2ccccc2)cc1C` [Example 159, (S)—N-(3,4-Dimethyl-phenyl)-2-hydroxy-2-phenyl-N-[2-(4-trifluoromethyl-phenyl)-ethyl]-acetamide], the Kb was 0.0542 µM.

In turn, `CCC(COC)NC(C(=O)N(CCc1ccc(C)cc1)c1ccc(C)c(C)c1)c1ccccc1` (stereo not shown) [Example 125, N-(3,4-Dimethyl-phenyl)-2-(1-methoxymethyl-propylamino)-2-phenyl-N-(2-p-tolyl-ethyl)-acetamide] showed a Kb of 0.0267 µM.

`Cc1ccc(N(CCc2ccc(C(F)(F)F)cc2)C(=O)C(N)c2ccccc2)cc1C` (stereo not shown) [Example 84, 2-Amino-N-(3,4-dimethyl-phenyl)-2-phenyl-N-[2-(4-trifluoromethyl-phenyl)-ethyl]-acetamide]: the Kb is 0.0666 µM.

Compound `Cc1ccc(N(CCc2cc(F)cc(F)c2)C(=O)[C@@H](N)c2ccccc2)cc1C` [Example 208, (S)-2-Amino-N-[2-(3,5-difluoro-phenyl)-ethyl]-N-(3,4-dimethyl-phenyl)-2-phenyl-acetamide hydrochloride] gave a Kb of 0.0231 µM.

`Cc1ccc(N(CCc2cccc(F)c2F)C(=O)[C@@H](N)c2ccccc2)cc1C` [Example 191, (S)-2-Amino-N-[2-(2,3-difluoro-phenyl)-ethyl]-N-(3,4-dimethyl-phenyl)-2-phenyl-acetamide hydrochloride] registered a Kb of 0.0215 µM.

In turn, `Cc1ccc(N(CCc2ccc(C#N)cc2)C(=O)[C@@H](N)c2ccccc2)cc1C` [Example 212, (S)-2-Amino-N-[2-(4-cyano-phenyl)-ethyl]-N-(3,4-dimethyl-phenyl)-2-phenyl-acetamide hydrochloride] displayed a Kb of 0.0343 µM.

The compound `Cc1ccc(N(CCc2ccc(C(F)(F)F)cc2F)C(=O)[C@@H](N)c2ccccc2)cc1C` [Example 196, (S)-2-Amino-N-(3,4-dimethyl-phenyl)-N-[2-(2-fluoro-4-trifluoromethyl-phenyl)-ethyl]-2-phenyl-acetamide hydrochloride] had a Kb of 0.0171 µM.

`Cc1cccc(CCN(C(=O)[C@@H](N)c2ccccc2)c2ccc(C)c(C)c2)c1` [Example 181, (S)-2-Amino-N-(3,4-dimethyl-phenyl)-2-phenyl-N-(2-m-tolyl-ethyl)-acetamide hydrochloride]: the Kb was 0.0708 µM.

Turning to `NC(C(=O)N(CCc1ccc(C(F)(F)F)cc1)c1cccc(C2(O)COC2)c1)c1ccccc1` (stereo not shown) [Example 95, 2-Amino-N-[3-(3-hydroxy-oxetan-3-yl)-phenyl]-2-phenyl-N-[2-(4-trifluoromethyl-phenyl)-ethyl]-acetamide], the Kb was determined as 0.0834 µM.

`N[C@H](C(=O)N(CCc1ccc(C(F)(F)F)cc1)c1ccc2c(c1)CCCC2)c1ccccc1` [Example 150, (S)-2-Amino-2-phenyl-N-(5,6,7,8-tetrahydro-naphthalen-2-yl)-N-[2-(4-trifluoromethyl-phenyl)-ethyl]-acetamide] came in with a Kb of 0.0682 µM.

`Cc1ccc(N(CCc2ccc(C(F)(F)F)cc2)C(=O)[C@@H](N)c2ccccc2)cc1C` [Example 138, (S)-2-Amino-N-(3,4-dimethyl-phenyl)-2-phenyl-N-[2-(4-trifluoromethyl-phenyl)-ethyl]-acetamide] gave a Kb of 0.0364 µM.

`CCOC(C(=O)N(CCc1ccc(C(F)(F)F)cc1)c1ccc(C)c(C)c1)c1ccccc1` (racemic) [Example 221, (R,S)—N-(3,4-Dimethyl-phenyl)-2-ethoxy-2-phenyl-N-[2-(4-trifluoromethyl-phenyl)-ethyl]-acetamide] showed a Kb of 0.0834 µM.

On to `Cc1ccc(N(CCc2ccc(C(F)(F)F)cc2)C(=O)[C@@H](N)c2ccc(F)cc2)cc1C` [Example 154, (S)-2-Amino-N-(3,4-dimethyl-phenyl)-2-(4-fluoro-phenyl)-N-[2-(4-trifluoromethyl-phenyl)-ethyl]-acetamide], for which the Kb was determined as 0.051 µM.

In the case of `COc1cccc(N(CCc2ccc(C(F)(F)F)cc2)C(=O)C(N)c2ccccc2OC)c1` (stereo not shown) [Example 38, 2-Amino-2-(2-methoxy-phenyl)-N-(3-methoxy-phenyl)-N-[2-(4-trifluoromethyl-phenyl)-ethyl]-acetamide], the Kb was found to be 0.0577 µM.

`COc1ccc(N(CCc2ccc(C(F)(F)F)cc2)C(=O)[C@@H](O)c2ccccc2)cc1OC` [Example 23, (2S)-N-(3,4-dimethoxyphenyl)-2-hydroxy-2-phenyl-N-{2-[4-(trifluoromethyl)phenyl]ethyl}acetamide] returned a Kb of 0.0226 µM.

For the compound `Cc1ccc(N(CCc2cc(F)cc(C(F)(F)F)c2)C(=O)[C@@H](N)c2ccccc2)cc1C` [Example 201, (S)-2-Amino-N-(3,4-dimethyl-phenyl)-N-[2-(3-fluoro-5-trifluoromethyl-phenyl)-ethyl]-2-phenyl-acetamide hydrochloride], the Kb was 0.247 µM.

On to `COc1cccc(N(CCc2ccc(C(F)(F)F)cc2)C(=O)C(N)c2ccccc2)c1` (stereo not shown) [Example 60, 2-Amino-N-(3-methoxy-phenyl)-2-phenyl-N-[2-(4-trifluoromethyl-phenyl)-ethyl]-acetamide], for which the Kb was found to be 0.0231 µM.

`Cc1ccc(N(CCc2ccc(F)cc2)C(=O)[C@@H](N)c2ccccc2)cc1C` [Example 175, (S)-2-Amino-N-(3,4-dimethyl-phenyl)-N-[2-(4-fluoro-phenyl)-ethyl]-2-phenyl-acetamide] came in with a Kb of 0.0219 µM.

In turn, `Cc1ccc(CCN(C(=O)C(N)c2ccccc2)c2ccc(C)c(C)c2)cc1` (stereo not shown) [Example 89, 2-Amino-N-(3,4-dimethyl-phenyl)-2-phenyl-N-(2-p-tolyl-ethyl)-acetamide] yielded a Kb of 0.0241 µM.

Compound `CCOCCNC(C(=O)N(CCc1ccc(C)cc1)c1ccc(C)c(C)c1)c1ccccc1` (stereo not shown) [Example 136, N-(3,4-Dimethyl-phenyl)-2-(2-ethoxy-ethylamino)-2-phenyl-N-(2-p-tolyl-ethyl)-acetamide] registered a Kb of 0.0201 µM.

With `Cc1ccc(N(CCc2ccc(C(F)(F)F)cc2)C(=O)C(=O)c2ccccc2)cc1C` [Example 218, N-(3,4-Dimethyl-phenyl)-2-oxo-2-phenyl-N-[2-(4-trifluoromethyl-phenyl)-ethyl]-acetamide], the Kb is 0.0555 µM.

In turn, `Cc1ccc(N(CCc2ccccc2)C(=O)[C@@H](N)c2ccccc2)cc1C` [Example 199, (S)-2-Amino-N-(3,4-dimethyl-phenyl)-N-phenethyl-2-phenyl-acetamide hydrochloride] had a Kb of 0.0489 µM.

For `COc1ccccc1CC(=O)N(CCc1ccc(C(F)(F)F)cc1)c1ccc(OC)c(OC)c1` [Example 14, N-(3,4-dimethoxyphenyl)-2-(2-methoxyphenyl)-N-{2-[4-(trifluoromethyl)phenyl]ethyl}acetamide], the Kb stood at 0.0342 µM.
